We go through eleven molecules from patent US8461328B2, “Tricyclic heterocyclic compounds, compositions and methods of use thereof” (Genentech, Inc., priority 2010, dated 2013).

As a reminder, the Ki is a dissociation constant, usually derived from enzyme kinetics or from competition with a known ligand.

Common to all, as to type: biochemical
One assay addresses T1, JAK1 (Homo sapiens, UniProt P23458).
T1 construct: made in house; host or cells: SF9 insect cells (baculovirus)
Nature of the assay: JAK1 inhibition (Table 4). The note with it: read-out: JAK1 Ki.

In another assay the target is T2, TYK2 (Homo sapiens, UniProt P29597).
T2 construct: made in house; host or cells: SF9 insect cells (baculovirus)
T2 sequence (P29597 873-1187): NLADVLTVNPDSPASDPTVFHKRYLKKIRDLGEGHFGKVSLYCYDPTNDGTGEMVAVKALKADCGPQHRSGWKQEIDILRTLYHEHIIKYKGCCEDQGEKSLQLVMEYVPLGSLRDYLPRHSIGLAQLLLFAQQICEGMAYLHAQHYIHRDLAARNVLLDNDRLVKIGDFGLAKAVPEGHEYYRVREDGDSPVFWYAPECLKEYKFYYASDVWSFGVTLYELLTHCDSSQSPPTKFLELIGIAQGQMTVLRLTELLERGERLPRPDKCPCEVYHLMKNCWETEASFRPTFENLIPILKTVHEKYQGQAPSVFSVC
In words: TYK2 inhibition (Table 4).

The next assay deals with T3, JAK2 (Homo sapiens, UniProt O60674).
T3 construct: made in house; host or cells: SF9 insect cells (baculovirus)
T3 sequence (O60674 812-1132): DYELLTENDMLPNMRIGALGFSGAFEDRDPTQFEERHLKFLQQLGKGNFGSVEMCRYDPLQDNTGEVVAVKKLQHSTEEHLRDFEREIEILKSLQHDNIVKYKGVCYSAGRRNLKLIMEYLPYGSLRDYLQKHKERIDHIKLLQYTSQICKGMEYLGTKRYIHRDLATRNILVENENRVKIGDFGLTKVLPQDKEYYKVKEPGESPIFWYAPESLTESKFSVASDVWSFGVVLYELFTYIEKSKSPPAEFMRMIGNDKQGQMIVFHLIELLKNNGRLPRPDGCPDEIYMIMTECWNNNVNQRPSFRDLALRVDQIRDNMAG
Nature of the assay: JAK2 inhibition (Table 4). Particulars: read-out: JAK2 Ki.

Another assay deals with T4, JAK3 (Homo sapiens, UniProt P52333).
T4 construct: made in house; host or cells: SF9 insect cells (baculovirus)
T4 sequence (P52333 783-1124): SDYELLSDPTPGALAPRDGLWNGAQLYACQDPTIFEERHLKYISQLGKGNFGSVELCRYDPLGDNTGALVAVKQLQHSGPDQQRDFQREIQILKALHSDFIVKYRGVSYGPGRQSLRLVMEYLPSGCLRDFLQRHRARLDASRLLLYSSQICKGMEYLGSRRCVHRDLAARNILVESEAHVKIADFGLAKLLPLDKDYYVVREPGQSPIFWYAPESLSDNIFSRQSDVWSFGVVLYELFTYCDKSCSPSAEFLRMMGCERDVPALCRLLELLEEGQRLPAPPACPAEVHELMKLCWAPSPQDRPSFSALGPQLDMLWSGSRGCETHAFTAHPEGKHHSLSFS
Nature of the assay: JAK3 inhibition (Table 4). The note with it: read-out: JAK3 Ki.

Structures are written as SMILES.

T1 sequence (P23458 852-1154): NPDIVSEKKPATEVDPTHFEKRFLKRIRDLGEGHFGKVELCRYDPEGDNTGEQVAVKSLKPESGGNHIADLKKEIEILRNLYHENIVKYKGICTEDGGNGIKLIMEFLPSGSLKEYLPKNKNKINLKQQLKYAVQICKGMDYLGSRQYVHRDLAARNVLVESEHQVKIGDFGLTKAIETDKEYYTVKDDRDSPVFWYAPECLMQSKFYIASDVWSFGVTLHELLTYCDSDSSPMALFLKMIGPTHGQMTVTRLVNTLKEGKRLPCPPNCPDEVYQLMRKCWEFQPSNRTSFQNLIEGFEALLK

`N#Cc1nc2cnc3[nH]ccc3c2n1C1CCN(Cc2ccccc2)CC1` [Example 163, 1-(1-Benzyl-piperidin-4-yl)-1,6-dihydro-1,2,3,5,6-tetraaza-as-indacene-2-carbonitrile]: the Ki came out at 0.0112 µM on JAK1, 0.607 µM at TYK2, 0.01 µM at JAK2 and 0.0281 µM on JAK3.
For the molecule `CC(C)NC(=O)[C@H]1CC[C@H](n2nnc3cnc4[nH]ccc4c32)CC1` [Example 165, Trans 4-(6H-1,2,3,5,6-Pentaaza-as-indacen-1-yl)-cyclohexanecarboxylic acid isopropylamide], the Ki on JAK1 was found to be 0.0489 µM; on TYK2, 0.55 µM; on JAK2 it was 0.177 µM; at JAK3, 0.802 µM.
As to `O=C([C@H]1CC[C@H](n2cnc3cnc4[nH]ccc4c32)CC1)N1CCOCC1` [Example 166, Trans Morpholin-4-yl-[4-(6H-1,2,3,5,6-tetraaza-as-indacen-1-yl)-cyclohexyl]-methanone], the Ki at JAK1 is 0.145 µM; at TYK2, 1.02 µM; at JAK2, 0.151 µM; at JAK3, 0.255 µM.
As to `FC(F)(F)c1nc2cnc3[nH]ccc3c2n1C1CCN(Cc2ccccc2)CC1` [Example 167, 1-(1-Benzyl-piperidin-4-yl)-2-trifluoromethyl-1,6-dihydro-1,2,3,5,6-tetraaza-as-indacene], the Ki on JAK1 stood at 0.0104 µM; on TYK2, 0.82 µM; at JAK2 it was 0.0141 µM; at JAK3, 0.00648 µM.
In the case of `CC(C)c1nc2cnc3[nH]ccc3c2n1C1CCNCC1` [Example 168, 2-Isopropyl-1-piperidin-4-yl-1,6-dihydro-1,2,3,5,6-tetraaza-as-indacene], the Ki at JAK1 amounted to 0.0253 µM; on TYK2, 1.39 µM; on JAK2 it was 0.312 µM; on JAK3 it was 0.33 µM.
For `N#Cc1nc2cnc3[nH]ccc3c2n1C1CCNCC1` [Example 170, 1-Piperidin-4-yl-1,6-dihydro-1,2,3,5,6-tetraaza-as-indacene-2-carbonitrile], in that order: 0.0929 µM, 0.956 µM, 0.334 µM and 1.05 µM.
Regarding `OC(CN1CCC(n2cnc3cnc4[nH]ccc4c32)CC1)(C(F)(F)F)C(F)(F)F` [Example 174, 1,1,1,3,3,3-Hexafluoro-2-[4-(6H-1,2,3,5,6-tetraaza-as-indacen-1-yl)-piperidin-1-ylmethyl]-propan-2-ol], the Ki at JAK1 worked out at 0.00158 µM; on TYK2, 0.00753 µM; at JAK2 it was 0.00266 µM; on JAK3 it was 0.0874 µM.
With `N#Cc1ccc(N[C@H]2CC[C@H](n3cnc4cnc5[nH]ccc5c43)CC2)nc1` [Example 176, Trans 6-[4-(6H-1,2,3,5,6-Tetraaza-as-indacen-1-yl)-cyclohexylamino]-nicotinonitrile], the inhibitory constant (Ki) was determined as 0.00216 µM on JAK1, 0.0243 µM on TYK2, 0.00705 µM on JAK2 and 0.0958 µM at JAK3.
In the case of `CN1CCC[C@H]1CN1CCC(n2cnc3cnc4[nH]ccc4c32)CC1` [Example 177, 1-[1-((S)-1-Methyl-pyrrolidin-2-ylmethyl)-piperidin-4-yl]-1,6-dihydro-1,2,3,5,6-tetraaza-as-indacene], the Ki on JAK1 stood at 0.042 µM; on TYK2 it was 0.519 µM; on JAK2 it was 0.144 µM; on JAK3 it was 1.4 µM.
For `Cc1nc2cnc3[nH]ccc3c2n1C1CCOC(C)(C)C1` (centres unmarked) [Example 178, 1-(2,2-Dimethyl-tetrahydro-pyran-4-yl)-2-methyl-1,6-dihydro-1,2,3,5,6-tetraaza-as-indacene], the Ki on JAK1 came out at 0.0738 µM; on TYK2 it was 0.104 µM; on JAK2, 0.0223 µM; at JAK3, 0.0162 µM.
For `FC1(F)CN(Cc2ccccc2)CCC1n1cnc2cnc3[nH]ccc3c21` (centres unmarked) [Example 179, 1-(1-Benzyl-3,3-difluoro-piperidin-4-yl)-1,6-dihydro-1,2,3,5,6-tetraaza-as-indacene], in that order: 0.00058 µM, 0.0216 µM, 0.00111 µM and 0.0132 µM.
